Assay results reported in patent US20110318426A1, “ANTIBACTERIAL AGENT AND METHOD OF USING THE SAME” (OSAKA MUNICIPAL TECHNICAL RESEARCH INSTITUTE, priority 2009, published 2011).

Columns and labels:
Assay type in all cases: cell-based
[1] = tested on: Pseudomonas aeruginosa (IAM11514); experiment: MIC determination test (growth by absorbance at 620 nm)
Description: (§1) Then, the suspensions were centrifuged (5800×g, 30 min), whereby supernatants were obtained.
(§2) In each of the obtained LB culture media containing the antibacterial agents, 1 μL of Escherichia coli (IF03972), Staphyloccocus aureus (IAM112082), Pseudomonas aeruginosa (IAM11514), or Bacillus subtilis (IFO3215), which are microorganisms generally used in the evaluation of antibacterial properties, was inoculated and cultured at 27° C. for 5 days. Microplates (96-well microplates, available Falcon) were used for the culturing of the microorganisms, and the growth of the microorganisms was checked by determination of absorbance at 620 nm with a microplate reader (Multisckan Ascent available from Labsystems). As the microorganisms to be inoculated, those prepared as follows were used: microorganisms of each type were cultured under agitation at 27° C. for 18 hours in a 5 mL of an ordinary bouillon culture medium (available from Eiken Chemical Co., Ltd.), then, 1 mL of the same was sampled and centrifuged at 10000 rpm for 5 minutes, sediments were suspended in 1 ml of a 0.85% saline solution, and the suspension was diluted to 100 times.
as §1
(§3) In each of the obtained LB culture media containing the antibacterial agents, 1 μL of Staphyloccocus aureus or Bacillus subtilis was inoculated and cultured at 27° C. for 5 days. Microplates (96-well microplates, available Falcon) were used for the culturing of the microorganisms, and the growth of the microorganisms was checked by determination of absorbance at 620 nm with a microplate reader (Multisckan Ascent available from Labsystems). As the microorganisms to be inoculated, those prepared as follows were used: microorganisms of each type were cultured under agitation at 27° C. for 18 hours in a 5 mL of an ordinary bouillon culture medium (available from Eiken Chemical Co., Ltd.), then, 1 mL of the same was sampled and centrifuged at 10000 rpm for 5 minutes, sediments were suspended in 1 ml of a 0.85% saline solution, and the suspension was further diluted to 100 times.
as §1

[2] = tested on: Bacillus subtilis (IFO3215); experiment: as above
Description: as §1, §2, §1, §3, §1

[3] = tested on: Escherichia coli (IF03972); experiment: as above
Description: as §1, §2, §1, §3, §1

[4] = tested on: Staphyloccocus aureus (IAM112082); experiment: as above
Description: as §1, §2, §1, §3, §1

[5] = tested on: Escherichia coli; experiment: Bactericidal effect determination test (viable count, pour plate method); conditions: for count of viable Escherichia coli: detection limit
Description: as §1
(§4) An Escherichia coli suspension, 20 μL, was added to each of the obtained LB culture media containing the antibacterial agents, whereby liquids for use in the bactericidal effect determination test were obtained. The liquids were sampled, 50 μL each, at the start, one hour later, three hours later, and 24 hours later, and each sample was added to 4.95 mL of a LP diluent. Each resultant was diluted at four steps, ten times each, and the count of viable bacteria in 1 mL of each diluted liquid was determined by the pour plate method. The Escherichia coli suspension used was a suspension obtained by culturing Escherichia coli under agitation at 27° C. for 18 hours in a 5 mL of an ordinary bouillon culture medium (available from Eiken Chemical Co., Ltd.), then, sampling 1 mL of the same and centrifuging the sample at 10000 rpm for 5 minutes, thereafter, suspending sediments in 1 ml of a 0.85% saline solution, and diluting the same to 10 times.
The suspension was agitated at 30° C. for 18 hours. Then, the suspension was centrifuged (5800×g, 30 min), whereby a supernatant, i.e., an LB culture medium containing an antibacterial agent, was prepared.
as §4, with “to” for “to each of”, “medium” for “media”, “agent,” for “agents,”, “liquid was” for “liquids were”, “start, 0.25 hour later,” for “start,”, “eight” for “24”

SMILES: O.O.O.O.O.O=S(=O)([O-])[O-].[Cu+2] [copper ions, copper sulfate pentahydrate]
- antibacterial property when phosphorus-adsorbing material was mixed [1]: did not improve
- antibacterial property when phosphorus-adsorbing material was mixed [2]: improved
- antibacterial property when phosphorus-adsorbing material was mixed [3]: did not improve
- antibacterial property when phosphorus-adsorbing material was mixed [4]: improved

SMILES: O=[N+]([O-])[O-].[Ag+] [silver ions, silver nitrate]
- MIC of silver ions ([3]; 0.5 to 1% (W/V) of allophane contained): 0.5 µg/mL
- MIC of silver ions ([3]; 2% (W/V) of allophane contained): 0.125 µg/mL
- MIC of silver ions ([3]; 4% (W/V) of allophane contained): 0.0313 µg/mL
- MIC of silver ions ([3]; allophane not contained): about 1 mg/L
- viable Escherichia coli observed ([5]; silver ions 1 mg/L, 1% (W/V) of allophane): only few Escherichia coli were observed
- count of viable Escherichia coli ([5]; silver ions 1 mg/L, 4% (W/V) of regenerated collagen powder): < 1000 cfu/ml
- count of viable Escherichia coli ([5]; silver ions 1 mg/L, 4% or more of allophane): < 1000 cfu/ml
- Count of viable bacteria ([5]; silver ions 1 mg/L, allophane 0% (W/V), time 0 h): 10,800,000 cfu/mL
- Count of viable bacteria ([5]; silver ions 1 mg/L, allophane 0% (W/V), time 1 h): 14,900,000 cfu/mL
- Count of viable bacteria ([5]; silver ions 1 mg/L, allophane 0% (W/V), time 3 h): 3,930,000 cfu/mL
- Count of viable bacteria ([5]; silver ions 1 mg/L, allophane 0% (W/V), time 24 h): 95,000,000 cfu/mL
- Count of viable bacteria ([5]; silver ions 1 mg/L, allophane 1% (W/V), time 0 h): 10,800,000 cfu/mL
- Count of viable bacteria ([5]; silver ions 1 mg/L, allophane 1% (W/V), time 1 h): 52,000 cfu/mL
- Count of viable bacteria ([5]; silver ions 1 mg/L, allophane 1% (W/V), time 3 h): 3,500 cfu/mL
- Count of viable bacteria ([5]; silver ions 1 mg/L, allophane 1% (W/V), time 24 h): 2,600 cfu/mL
- Count of viable bacteria ([5]; silver ions 1 mg/L, allophane 4% (W/V), time 0 h): 10,800,000 cfu/mL
- Count of viable bacteria ([5]; silver ions 1 mg/L, allophane 4% (W/V), time 1 h): 1,100 cfu/mL
- Count of viable bacteria ([5]; silver ions 1 mg/L, allophane 4% (W/V), time 3 h): 1,000 or less cfu/mL
- Count of viable bacteria ([5]; silver ions 1 mg/L, allophane 4% (W/V), time 24 h): 1,000 or less cfu/mL
- Count of viable bacteria ([5]; silver ions 1 mg/L, allophane 8% (W/V), time 0 h): 10,800,000 cfu/mL
- Count of viable bacteria ([5]; silver ions 1 mg/L, allophane 8% (W/V), time 1 h): 1,000 or less cfu/mL
- Count of viable bacteria ([5]; silver ions 1 mg/L, allophane 8% (W/V), time 3 h): 1,000 or less cfu/mL
- Count of viable bacteria ([5]; silver ions 1 mg/L, allophane 8% (W/V), time 24 h): 1,000 or less cfu/mL
- Count of viable bacteria ([5]; silver ions 1 mg/L, regenerated collagen powder 0% (W/V), time 1 h): 6.2 × 10^7 cfu/mL
- Count of viable bacteria ([5]; silver ions 1 mg/L, regenerated collagen powder 0% (W/V), time 3 h): 6.7 × 10^7 cfu/mL
- Count of viable bacteria ([5]; silver ions 1 mg/L, regenerated collagen powder 0% (W/V), time 8 h): 2.4 × 10^7 cfu/mL
- Count of viable bacteria ([5]; silver ions 1 mg/L, regenerated collagen powder 0% (W/V), time […]): 8.1 × 10^7 cfu/mL
- Count of viable bacteria ([5]; silver ions 1 mg/L, regenerated collagen powder 4% (W/V), time 1 h): 9.9 × 10^6 cfu/mL
- Count of viable bacteria ([5]; silver ions 1 mg/L, regenerated collagen powder 4% (W/V), time 3 h): 1.4 × 10^5 cfu/mL
- Count of viable bacteria ([5]; silver ions 1 mg/L, regenerated collagen powder 4% (W/V), time 8 h): ≤ 1.0 × 10^3 cfu/mL
- Count of viable bacteria ([5]; silver ions 1 mg/L, regenerated collagen powder 4% (W/V), time […]): 4.7 × 10^4 cfu/mL
- count of viable Escherichia coli ([5]; silver ions 5 mg/L, 1% (W/V) or more of allophane): < 1000 cfu/ml
- Count of viable bacteria ([5]; silver ions 5 mg/L, allophane 0% (W/V), last time point (24 h, time cell misprinted)): 1000 or less cfu/mL
- Count of viable bacteria ([5]; silver ions 5 mg/L, allophane 0% (W/V), time 0 h): 10,800,000 cfu/mL
- Count of viable bacteria ([5]; silver ions 5 mg/L, allophane 0% (W/V), time 1 h): 6,000,000 cfu/mL
- Count of viable bacteria ([5]; silver ions 5 mg/L, allophane 0% (W/V), time 3 h): 29,000 cfu/mL
- Count of viable bacteria ([5]; silver ions 5 mg/L, allophane 1% (W/V), last time point (24 h, time cell misprinted)): 1,000 or less cfu/mL
- Count of viable bacteria ([5]; silver ions 5 mg/L, allophane 1% (W/V), time 0 h): 10,800,000 cfu/mL
- Count of viable bacteria ([5]; silver ions 5 mg/L, allophane 1% (W/V), time 1 h): 1,000 or less cfu/mL
- Count of viable bacteria ([5]; silver ions 5 mg/L, allophane 1% (W/V), time 3 h): 1,000 or less cfu/mL
- Count of viable bacteria ([5]; silver ions 5 mg/L, allophane 4% (W/V), last time point (24 h, time cell misprinted)): 1,000 or less cfu/mL
- Count of viable bacteria ([5]; silver ions 5 mg/L, allophane 4% (W/V), time 0 h): 10,800,000 cfu/mL
- Count of viable bacteria ([5]; silver ions 5 mg/L, allophane 4% (W/V), time 1 h): 1,000 or less cfu/mL
- Count of viable bacteria ([5]; silver ions 5 mg/L, allophane 4% (W/V), time 3 h): 1,000 or less cfu/mL
- Count of viable bacteria ([5]; silver ions 5 mg/L, allophane 8% (W/V), last time point (24 h, time cell misprinted)): 1,000 or less cfu/mL
- Count of viable bacteria ([5]; silver ions 5 mg/L, allophane 8% (W/V), time 0 h): 10,800,000 cfu/mL
- Count of viable bacteria ([5]; silver ions 5 mg/L, allophane 8% (W/V), time 1 h): 1,000 or less cfu/mL
- Count of viable bacteria ([5]; silver ions 5 mg/L, allophane 8% (W/V), time 3 h): 1,000 or less cfu/mL

SMILES: O.O.O.O.O.O.O.O=S(=O)([O-])[O-].[Zn+2] [zinc ions, zinc sulfate heptahydrate]
- antibacterial property when phosphorus-adsorbing material was mixed [1]: did not improve
- antibacterial property when phosphorus-adsorbing material was mixed [2]: improved
- antibacterial property when phosphorus-adsorbing material was mixed [3]: did not improve
- MIC decrease relative to no allophane (fraction) [4]: about ⅛
- antibacterial property when phosphorus-adsorbing material was mixed [4]: improved
